Reference: the NIST ThermoML archive (doi:10.1016/j.tca.2007.04.012)

Columns and labels:
[1] = 298.15 K; 101.33 kPa; Liquid; Vibrating tube method
[2] = xn = mol fraction of the nth substance listed; settings: 298.15 K, 101 kPa, Liquid, Vibrating tube method
[3] = excess molar enthalpy (molar enthalpy of mixing); xn = mol fraction of the nth substance listed; settings: 298.15 K, 101 kPa, Liquid, Flow calorimetry

OCC(F)(F)F [2,2,2-trifluoroethanol]
Settings	mass density [kg/m3]
[1]	1383.41

OCC(F)(F)F [2,2,2-trifluoroethanol] + CCCO
Settings	excess molar enthalpy [kcal/mol]	mass density [kg/m3]
[2], x1 = 0.00607	–	802.48
[2], x1 = 0.01063	–	804.92
[2], x1 = 0.02216	–	810.94
[2], x1 = 0.03141	–	815.81
[2], x1 = 0.1032	–	853.69
[2], x1 = 0.2022	–	906.48
[2], x1 = 0.3118	–	965.59
[2], x1 = 0.408	–	1018.5
[2], x1 = 0.5085	–	1075.13
[2], x1 = 0.6057	–	1131.49
[2], x1 = 0.7074	–	1192.38
[2], x1 = 0.8029	–	1251.85
[2], x1 = 0.9023	–	1316.56
[2], x1 = 0.9671	–	1360.54
[2], x1 = 0.9785	–	1368.42
[2], x1 = 0.9898	–	1376.24
[2], x1 = 0.9948	–	1379.83
[2], x1 = 1	–	1383.41
[3], x1 = 0.0054	-0.00299	–
[3], x1 = 0.0092	-0.00578	–
[3], x1 = 0.02045	-0.0111	–
[3], x1 = 0.03258	-0.0163	–
[3], x1 = 0.04077	-0.0215	–
[3], x1 = 0.051	-0.026	–
[3], x1 = 0.1013	-0.0439	–
[3], x1 = 0.2013	-0.0642	–
[3], x1 = 0.3023	-0.0721	–
[3], x1 = 0.4041	-0.073	–
[3], x1 = 0.4962	-0.0645	–
[3], x1 = 0.5974	-0.0539	–
[3], x1 = 0.6998	-0.0417	–
[3], x1 = 0.7987	-0.0275	–
[3], x1 = 0.9003	-0.0137	–
[3], x1 = 0.9108	-0.0123	–
[3], x1 = 0.9211	-0.011	–
[3], x1 = 0.9333	-0.00978	–
[3], x1 = 0.9409	-0.00832	–
[3], x1 = 0.9486	-0.00703	–
[3], x1 = 0.9577	-0.00578	–
[3], x1 = 0.9694	-0.00409	–
[3], x1 = 0.9839	-0.00258	–
[3], x1 = 0.9916	-0.00108	–
[3], x1 = 0.9961	-0.000406	–

OCC(F)(F)F [2,2,2-trifluoroethanol] + CCO
Settings	excess molar enthalpy [kcal/mol]	mass density [kg/m3]
[2], x1 = 0.00449	–	788
[2], x1 = 0.00898	–	791.1
[2], x1 = 0.02012	–	798.87
[2], x1 = 0.02992	–	805.61
[2], x1 = 0.04022	–	812.7
[2], x1 = 0.05208	–	820.82
[2], x1 = 0.1002	–	853.17
[2], x1 = 0.2003	–	918.54
[2], x1 = 0.3001	–	981.36
[2], x1 = 0.3999	–	1042.13
[2], x1 = 0.5003	–	1101.6
[2], x1 = 0.6012	–	1160.07
[2], x1 = 0.7025	–	1217.72
[2], x1 = 0.7851	–	1264.15
[2], x1 = 0.9109	–	1334.11
[2], x1 = 0.92	–	1339.16
[2], x1 = 0.9299	–	1344.65
[2], x1 = 0.9497	–	1355.58
[2], x1 = 0.9597	–	1361.14
[2], x1 = 0.9697	–	1366.65
[2], x1 = 0.9798	–	1372.26
[2], x1 = 0.9897	–	1377.67
[2], x1 = 1	–	1383.41
[3], x1 = 0.00586	-0.00471	–
[3], x1 = 0.0106	-0.00946	–
[3], x1 = 0.02013	-0.0193	–
[3], x1 = 0.03032	-0.0283	–
[3], x1 = 0.03992	-0.0369	–
[3], x1 = 0.04851	-0.0448	–
[3], x1 = 0.06244	-0.0517	–
[3], x1 = 0.07146	-0.0594	–
[3], x1 = 0.08127	-0.0666	–
[3], x1 = 0.09052	-0.0739	–
[3], x1 = 0.09891	-0.0797	–
[3], x1 = 0.199	-0.1256	–
[3], x1 = 0.2992	-0.1503	–
[3], x1 = 0.3995	-0.1603	–
[3], x1 = 0.5039	-0.157	–
[3], x1 = 0.6029	-0.1387	–
[3], x1 = 0.7014	-0.1179	–
[3], x1 = 0.7964	-0.08435	–
[3], x1 = 0.8945	-0.0468	–
[3], x1 = 0.9072	-0.0426	–
[3], x1 = 0.916	-0.0381	–
[3], x1 = 0.9278	-0.0345	–
[3], x1 = 0.9389	-0.0293	–
[3], x1 = 0.9516	-0.024	–
[3], x1 = 0.9618	-0.0199	–
[3], x1 = 0.9729	-0.0139	–
[3], x1 = 0.9826	-0.00901	–
[3], x1 = 0.992	-0.00356	–
[3], x1 = 0.9988	-0.000908	–

OCC(F)(F)F [2,2,2-trifluoroethanol] + CO
Settings	excess molar enthalpy [kcal/mol]	mass density [kg/m3]
[2], x1 = 0.00435	–	790.62
[2], x1 = 0.00909	–	795.28
[2], x1 = 0.01555	–	801.57
[2], x1 = 0.01643	–	802.43
[2], x1 = 0.06693	–	849.62
[2], x1 = 0.1862	–	949.42
[2], x1 = 0.3191	–	1045.13
[2], x1 = 0.385	–	1087.8
[2], x1 = 0.4808	–	1144.91
[2], x1 = 0.5797	–	1198.76
[2], x1 = 0.6905	–	1253.74
[2], x1 = 0.8331	–	1317.38
[2], x1 = 0.9196	–	1352.57
[2], x1 = 0.9701	–	1372.13
[2], x1 = 0.9799	–	1375.89
[2], x1 = 0.9913	–	1380.01
[2], x1 = 0.9949	–	1381.47
[2], x1 = 1	–	1383.41
[3], x1 = 0.00548	-0.00519	–
[3], x1 = 0.01037	-0.00949	–
[3], x1 = 0.02045	-0.0191	–
[3], x1 = 0.02995	-0.0283	–
[3], x1 = 0.04012	-0.0376	–
[3], x1 = 0.04831	-0.0459	–
[3], x1 = 0.09938	-0.08521	–
[3], x1 = 0.1996	-0.1461	–
[3], x1 = 0.297	-0.1827	–
[3], x1 = 0.3988	-0.2023	–
[3], x1 = 0.4971	-0.2035	–
[3], x1 = 0.6027	-0.194	–
[3], x1 = 0.7098	-0.1616	–
[3], x1 = 0.8044	-0.1209	–
[3], x1 = 0.8929	-0.0647	–
[3], x1 = 0.9016	-0.0587	–
[3], x1 = 0.9113	-0.0538	–
[3], x1 = 0.9251	-0.0452	–
[3], x1 = 0.9337	-0.0388	–
[3], x1 = 0.9463	-0.0319	–
[3], x1 = 0.9602	-0.0246	–
[3], x1 = 0.9707	-0.0169	–
[3], x1 = 0.9838	-0.00875	–
[3], x1 = 0.9953	-0.0028	–
[3], x1 = 0.9987	-0.000645	–

OCC(F)(F)F [2,2,2-trifluoroethanol] + O
Settings	excess molar enthalpy [kcal/mol]	mass density [kg/m3]
[2], x1 = 0.00478	–	1005.99
[2], x1 = 0.01029	–	1016.28
[2], x1 = 0.01855	–	1031.19
[2], x1 = 0.02226	–	1037.71
[2], x1 = 0.1002	–	1139.98
[2], x1 = 0.1985	–	1215.51
[2], x1 = 0.3	–	1265.59
[2], x1 = 0.3983	–	1298.93
[2], x1 = 0.4965	–	1322.87
[2], x1 = 0.5995	–	1341.54
[2], x1 = 0.7303	–	1359.16
[2], x1 = 0.839	–	1370.38
[2], x1 = 0.9062	–	1376.17
[2], x1 = 0.9696	–	1381.16
[2], x1 = 0.98	–	1381.89
[2], x1 = 0.9899	–	1382.59
[2], x1 = 0.995	–	1382.97
[2], x1 = 1	–	1383.41
[3], x1 = 0.00546	-0.00688	–
[3], x1 = 0.01088	-0.013	–
[3], x1 = 0.02028	-0.0219	–
[3], x1 = 0.0306	-0.0252	–
[3], x1 = 0.04018	-0.0246	–
[3], x1 = 0.04984	-0.0225	–
[3], x1 = 0.05985	-0.0196	–
[3], x1 = 0.07002	-0.0159	–
[3], x1 = 0.07952	-0.0122	–
[3], x1 = 0.08986	-0.00791	–
[3], x1 = 0.09937	-0.00335	–
[3], x1 = 0.11	0.000789	–
[3], x1 = 0.1193	0.00528	–
[3], x1 = 0.1299	0.0097	–
[3], x1 = 0.1385	0.0143	–
[3], x1 = 0.1486	0.0192	–
[3], x1 = 0.1983	0.0424	–
[3], x1 = 0.2988	0.08652	–
[3], x1 = 0.3988	0.123	–
[3], x1 = 0.4955	0.1497	–
[3], x1 = 0.5989	0.1661	–
[3], x1 = 0.7078	0.1649	–
[3], x1 = 0.8079	0.1296	–
[3], x1 = 0.898	0.073	–
[3], x1 = 0.9054	0.0679	–
[3], x1 = 0.9202	0.0573	–
[3], x1 = 0.9301	0.0499	–
[3], x1 = 0.9387	0.0447	–
[3], x1 = 0.9528	0.0344	–
[3], x1 = 0.9646	0.0249	–
[3], x1 = 0.9732	0.0189	–
[3], x1 = 0.988	0.00963	–
[3], x1 = 0.9952	0.00335	–

CCO [ethanol]
Settings	mass density [kg/m3]
[1]	784.83

CCO [ethanol] + OCC(F)(F)F
Settings	mass density [kg/m3]
[2], x2 = 0	784.83

CO [methanol]
Settings	mass density [kg/m3]
[1]	786.3

CO [methanol] + OCC(F)(F)F
Settings	mass density [kg/m3]
[2], x2 = 0	786.3

CCCO [propan-1-ol]
Settings	mass density [kg/m3]
[1]	799.3

CCCO [propan-1-ol] + OCC(F)(F)F
Settings	mass density [kg/m3]
[2], x2 = 0	799.3
